# Reference: article PMC6704710, “Preclinical evaluation of 3D185, a novel potent inhibitor of FGFR1/2/3 and CSF-1R, in FGFR-dependent and macrophage-dominant cancer models” (Journal of Experimental & Clinical Cancer Research : CR, 2019)
# Tests used:
# Assay in all cases: Eurofins kinase panel
# Assay type in all cases: biochemical
# Settings in all cases: read-out: Inhibition rate (%)
# [1] = molecular target: T1, ALK1(h) (Homo sapiens, UniProt P37023)
# T1 construct: purchased Eurofins (KinaseProfiler)
# [2] = molecular target: T2, ATM(h) (Homo sapiens, UniProt Q13315)
# T2 construct: purchased Eurofins (KinaseProfiler)
# [3] = molecular target: T3, IKKα(h) (Homo sapiens, UniProt O15111)
# T3 construct: purchased Eurofins (KinaseProfiler)
# T3 sequence (O15111 1-745): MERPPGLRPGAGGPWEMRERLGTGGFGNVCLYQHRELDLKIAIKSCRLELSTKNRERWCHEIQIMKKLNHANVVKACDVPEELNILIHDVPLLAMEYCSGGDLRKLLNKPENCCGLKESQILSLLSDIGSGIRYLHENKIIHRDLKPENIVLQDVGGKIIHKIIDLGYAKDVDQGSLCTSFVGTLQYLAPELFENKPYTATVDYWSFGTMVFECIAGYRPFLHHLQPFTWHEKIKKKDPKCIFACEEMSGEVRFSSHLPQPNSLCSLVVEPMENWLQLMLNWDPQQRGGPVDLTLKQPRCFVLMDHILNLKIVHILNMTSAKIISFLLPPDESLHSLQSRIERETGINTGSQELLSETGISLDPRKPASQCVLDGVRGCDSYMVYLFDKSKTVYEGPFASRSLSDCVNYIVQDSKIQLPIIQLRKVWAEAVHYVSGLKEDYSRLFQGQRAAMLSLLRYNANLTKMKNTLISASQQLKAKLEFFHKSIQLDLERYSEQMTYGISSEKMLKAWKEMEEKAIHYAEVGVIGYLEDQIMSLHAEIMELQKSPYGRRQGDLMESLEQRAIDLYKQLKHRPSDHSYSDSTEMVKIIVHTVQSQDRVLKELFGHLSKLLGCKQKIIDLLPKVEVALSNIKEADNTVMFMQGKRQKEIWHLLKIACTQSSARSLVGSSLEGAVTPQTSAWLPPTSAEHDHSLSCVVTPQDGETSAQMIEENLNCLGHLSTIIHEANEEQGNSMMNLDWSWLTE
# [4] = molecular target: T4, CHK2(h) (Homo sapiens, UniProt O96017)
# T4 construct: purchased Eurofins (KinaseProfiler)
# [5] = molecular target: T5, CaMKIß(h) (Homo sapiens, UniProt Q6P2M8)
# T5 construct: purchased Eurofins (KinaseProfiler)
# [6] = molecular target: T6, CK2α2(h) (Homo sapiens, UniProt P19784)
# T6 construct: purchased Eurofins (KinaseProfiler)
# [7] = molecular target: T7, c-RAF(h) (Homo sapiens, UniProt P04049)
# T7 construct: purchased Eurofins (KinaseProfiler)
# [8] = molecular target: T8, NIM1(h) (Homo sapiens, UniProt Q8IY84)
# T8 construct: purchased Eurofins (KinaseProfiler)
# [9] = molecular target: T9, CDK5/p35(h) (Homo sapiens, UniProt Q00535)
# T9 construct: purchased Eurofins (KinaseProfiler)
# [10] = molecular target: T10, PAR-1Bα(h) (Homo sapiens, UniProt Q7KZI7)
# T10 construct: purchased Eurofins (KinaseProfiler)
# [11] = molecular target: T11, PKA(h) (Homo sapiens, UniProt P17612)
# T11 construct: purchased Eurofins (KinaseProfiler)
# [12] = molecular target: T12, SGK(h) (Homo sapiens, UniProt O00141)
# T12 construct: purchased Eurofins (KinaseProfiler)
# T12 sequence (O00141 1-431): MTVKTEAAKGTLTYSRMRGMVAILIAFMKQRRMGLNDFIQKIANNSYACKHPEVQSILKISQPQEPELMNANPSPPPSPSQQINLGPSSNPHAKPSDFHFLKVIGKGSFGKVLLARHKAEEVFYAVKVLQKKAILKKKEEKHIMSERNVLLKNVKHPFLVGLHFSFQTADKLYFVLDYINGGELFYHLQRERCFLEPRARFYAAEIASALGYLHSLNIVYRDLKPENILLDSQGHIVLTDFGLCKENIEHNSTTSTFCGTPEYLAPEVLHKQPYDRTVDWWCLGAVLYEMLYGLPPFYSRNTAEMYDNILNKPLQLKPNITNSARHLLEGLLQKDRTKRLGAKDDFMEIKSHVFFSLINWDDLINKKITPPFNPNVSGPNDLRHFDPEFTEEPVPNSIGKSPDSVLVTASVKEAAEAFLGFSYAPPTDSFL
# [13] = molecular target: T13, Met(D1246N)(h) (Homo sapiens, UniProt P08581, D1228N)
# T13 construct: purchased Eurofins (KinaseProfiler)
# [14] = molecular target: T14, CK1γ2(h) (Homo sapiens, UniProt P78368)
# T14 construct: purchased Eurofins (KinaseProfiler)
# [15] = molecular target: T15, Ret (V804L)(h) (Homo sapiens, UniProt P07949, V804L)
# T15 construct: purchased Eurofins (KinaseProfiler)
# T15 sequence (P07949 29-1114 V804L): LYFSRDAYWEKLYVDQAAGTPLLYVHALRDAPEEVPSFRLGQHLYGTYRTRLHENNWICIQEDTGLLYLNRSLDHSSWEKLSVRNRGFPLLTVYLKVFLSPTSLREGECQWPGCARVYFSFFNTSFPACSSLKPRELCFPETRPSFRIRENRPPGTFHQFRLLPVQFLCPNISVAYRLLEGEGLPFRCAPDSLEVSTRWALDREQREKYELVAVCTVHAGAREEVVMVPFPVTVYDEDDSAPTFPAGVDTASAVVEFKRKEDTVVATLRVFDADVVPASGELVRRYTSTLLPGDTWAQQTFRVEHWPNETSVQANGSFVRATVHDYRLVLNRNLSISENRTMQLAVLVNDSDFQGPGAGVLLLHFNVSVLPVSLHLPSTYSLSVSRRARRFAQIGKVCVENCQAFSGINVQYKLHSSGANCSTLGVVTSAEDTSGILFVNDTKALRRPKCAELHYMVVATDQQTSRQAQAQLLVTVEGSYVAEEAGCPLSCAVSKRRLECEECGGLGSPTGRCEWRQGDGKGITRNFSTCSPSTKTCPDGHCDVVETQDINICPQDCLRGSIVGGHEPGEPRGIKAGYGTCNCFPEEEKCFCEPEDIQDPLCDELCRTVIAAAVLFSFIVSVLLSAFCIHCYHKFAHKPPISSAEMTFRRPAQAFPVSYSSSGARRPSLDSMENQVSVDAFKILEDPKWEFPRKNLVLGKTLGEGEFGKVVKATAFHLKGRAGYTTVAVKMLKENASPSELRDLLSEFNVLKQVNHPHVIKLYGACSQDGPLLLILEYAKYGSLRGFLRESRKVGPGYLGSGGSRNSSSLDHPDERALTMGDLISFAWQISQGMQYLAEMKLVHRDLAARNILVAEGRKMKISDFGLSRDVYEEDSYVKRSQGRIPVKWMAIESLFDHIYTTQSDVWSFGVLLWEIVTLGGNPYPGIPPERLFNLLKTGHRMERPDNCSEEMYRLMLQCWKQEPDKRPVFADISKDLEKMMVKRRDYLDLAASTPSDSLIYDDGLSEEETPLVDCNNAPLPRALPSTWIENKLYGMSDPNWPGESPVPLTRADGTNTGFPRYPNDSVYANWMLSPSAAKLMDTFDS
# T8 sequence (Q8IY84 whole entry): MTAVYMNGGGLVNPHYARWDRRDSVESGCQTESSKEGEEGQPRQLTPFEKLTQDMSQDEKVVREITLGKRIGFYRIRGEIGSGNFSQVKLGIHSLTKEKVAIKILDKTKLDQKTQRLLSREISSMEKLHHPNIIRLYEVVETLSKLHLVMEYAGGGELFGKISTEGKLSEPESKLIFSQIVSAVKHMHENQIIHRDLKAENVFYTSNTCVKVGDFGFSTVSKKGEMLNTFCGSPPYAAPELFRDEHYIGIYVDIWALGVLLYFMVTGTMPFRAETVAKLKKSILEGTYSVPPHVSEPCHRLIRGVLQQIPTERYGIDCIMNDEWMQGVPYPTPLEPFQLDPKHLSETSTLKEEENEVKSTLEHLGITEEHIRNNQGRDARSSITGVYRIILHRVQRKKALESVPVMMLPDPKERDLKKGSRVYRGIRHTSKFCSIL
# T7 sequence (P04049 whole entry): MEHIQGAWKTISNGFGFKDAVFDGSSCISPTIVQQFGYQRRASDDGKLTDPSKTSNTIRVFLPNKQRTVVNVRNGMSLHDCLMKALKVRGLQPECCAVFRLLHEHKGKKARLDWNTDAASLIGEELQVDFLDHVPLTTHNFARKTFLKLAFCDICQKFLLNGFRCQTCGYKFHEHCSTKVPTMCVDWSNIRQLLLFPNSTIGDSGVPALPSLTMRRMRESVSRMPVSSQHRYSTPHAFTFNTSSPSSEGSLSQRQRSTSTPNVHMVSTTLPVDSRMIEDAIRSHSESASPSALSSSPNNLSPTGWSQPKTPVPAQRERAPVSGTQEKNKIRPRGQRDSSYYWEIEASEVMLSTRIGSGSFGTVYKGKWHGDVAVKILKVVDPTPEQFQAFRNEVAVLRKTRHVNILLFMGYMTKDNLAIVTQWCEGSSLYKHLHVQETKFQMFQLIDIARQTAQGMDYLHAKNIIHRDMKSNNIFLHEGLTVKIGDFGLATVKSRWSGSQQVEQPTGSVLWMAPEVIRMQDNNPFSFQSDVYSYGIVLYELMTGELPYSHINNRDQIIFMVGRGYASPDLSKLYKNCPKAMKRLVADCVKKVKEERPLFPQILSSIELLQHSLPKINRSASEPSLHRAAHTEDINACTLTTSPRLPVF
# T13 sequence (P08581 956-1390 D1228N limits assumed): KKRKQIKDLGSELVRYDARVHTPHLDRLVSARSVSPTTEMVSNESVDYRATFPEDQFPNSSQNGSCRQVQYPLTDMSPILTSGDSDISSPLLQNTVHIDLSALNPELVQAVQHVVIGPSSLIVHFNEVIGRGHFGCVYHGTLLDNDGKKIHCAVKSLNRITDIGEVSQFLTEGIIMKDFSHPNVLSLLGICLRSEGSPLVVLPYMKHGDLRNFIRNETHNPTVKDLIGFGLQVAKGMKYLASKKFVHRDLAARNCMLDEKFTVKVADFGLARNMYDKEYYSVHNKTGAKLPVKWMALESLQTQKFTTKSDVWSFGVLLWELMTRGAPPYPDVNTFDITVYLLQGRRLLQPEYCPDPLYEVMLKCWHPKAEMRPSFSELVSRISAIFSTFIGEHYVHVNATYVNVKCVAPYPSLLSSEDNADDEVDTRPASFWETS
# T9 sequence (Q00535 whole entry): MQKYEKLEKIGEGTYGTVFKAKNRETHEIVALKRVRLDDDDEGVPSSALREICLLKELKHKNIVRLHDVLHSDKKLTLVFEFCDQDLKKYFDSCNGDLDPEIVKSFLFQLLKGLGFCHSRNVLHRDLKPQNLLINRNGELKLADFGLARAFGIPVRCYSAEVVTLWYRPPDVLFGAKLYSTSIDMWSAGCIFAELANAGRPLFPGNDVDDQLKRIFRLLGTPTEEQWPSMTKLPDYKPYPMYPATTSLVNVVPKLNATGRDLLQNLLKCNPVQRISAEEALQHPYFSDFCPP
# T9 sequence (Q15078 whole entry partner): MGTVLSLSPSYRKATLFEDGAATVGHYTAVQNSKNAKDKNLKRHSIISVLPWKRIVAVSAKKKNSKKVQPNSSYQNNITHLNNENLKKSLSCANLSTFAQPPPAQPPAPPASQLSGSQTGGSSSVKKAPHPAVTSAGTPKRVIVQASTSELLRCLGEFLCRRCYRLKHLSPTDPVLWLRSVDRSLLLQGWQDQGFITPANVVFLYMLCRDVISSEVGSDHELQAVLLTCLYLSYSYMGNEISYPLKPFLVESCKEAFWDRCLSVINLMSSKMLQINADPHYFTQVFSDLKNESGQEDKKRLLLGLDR
# T6 sequence (P19784 whole entry): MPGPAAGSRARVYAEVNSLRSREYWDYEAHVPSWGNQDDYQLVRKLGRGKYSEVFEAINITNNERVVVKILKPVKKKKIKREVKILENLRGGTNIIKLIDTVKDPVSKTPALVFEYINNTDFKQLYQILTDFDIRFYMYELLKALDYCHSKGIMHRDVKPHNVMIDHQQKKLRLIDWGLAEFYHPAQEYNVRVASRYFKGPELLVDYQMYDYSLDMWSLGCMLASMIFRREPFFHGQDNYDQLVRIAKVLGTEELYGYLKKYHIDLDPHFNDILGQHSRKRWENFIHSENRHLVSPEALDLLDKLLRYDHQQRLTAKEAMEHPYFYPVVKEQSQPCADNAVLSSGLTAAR
# T5 sequence (Q6P2M8 whole entry): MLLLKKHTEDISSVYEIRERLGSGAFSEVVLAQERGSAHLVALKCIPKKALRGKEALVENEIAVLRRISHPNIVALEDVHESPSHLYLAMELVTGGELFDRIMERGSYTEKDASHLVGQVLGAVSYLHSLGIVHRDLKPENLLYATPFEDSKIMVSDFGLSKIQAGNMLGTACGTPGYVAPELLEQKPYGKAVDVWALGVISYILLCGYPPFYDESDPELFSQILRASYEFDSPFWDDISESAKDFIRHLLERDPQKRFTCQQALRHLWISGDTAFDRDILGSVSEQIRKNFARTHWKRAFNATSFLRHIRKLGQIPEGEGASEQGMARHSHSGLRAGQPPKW
# T10 sequence (Q7KZI7 1-725 isoform Q7KZI7-4): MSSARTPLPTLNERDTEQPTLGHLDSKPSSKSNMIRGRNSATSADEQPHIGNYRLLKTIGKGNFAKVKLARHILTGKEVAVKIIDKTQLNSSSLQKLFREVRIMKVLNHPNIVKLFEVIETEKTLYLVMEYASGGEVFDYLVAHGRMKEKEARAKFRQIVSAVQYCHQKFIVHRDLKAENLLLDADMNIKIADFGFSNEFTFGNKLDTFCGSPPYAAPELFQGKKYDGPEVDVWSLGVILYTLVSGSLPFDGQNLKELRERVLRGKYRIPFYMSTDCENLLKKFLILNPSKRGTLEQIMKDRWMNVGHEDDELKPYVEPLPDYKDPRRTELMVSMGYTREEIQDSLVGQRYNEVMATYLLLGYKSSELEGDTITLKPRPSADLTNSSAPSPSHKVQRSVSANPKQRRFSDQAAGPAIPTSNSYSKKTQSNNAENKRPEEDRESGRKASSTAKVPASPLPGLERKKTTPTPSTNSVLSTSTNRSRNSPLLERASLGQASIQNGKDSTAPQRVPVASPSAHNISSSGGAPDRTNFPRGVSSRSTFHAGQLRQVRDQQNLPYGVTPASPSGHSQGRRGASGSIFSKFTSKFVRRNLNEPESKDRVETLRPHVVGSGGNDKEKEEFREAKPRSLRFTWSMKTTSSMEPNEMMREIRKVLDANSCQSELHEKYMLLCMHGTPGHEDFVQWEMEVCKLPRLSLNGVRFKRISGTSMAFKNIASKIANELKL
smiles,measurement,setting,value
COc1cc(OC)c(Cl)c(-c2ccc3c(NC(=O)c4ccc(N5CCNC(C)(C)C5)cc4)n[nH]c3n2)c1Cl [3D185],inhibition at 0.01 µM,[1]; 10 nM,3%
same,inhibition at 0.1 µM,[1]; 100 nM,-7%
same,inhibition at 1 µM,[1]; 1000 nM,-1%
same,inhibition at 0.01 µM,[2]; 10 nM,-3%
same,inhibition at 0.1 µM,[2]; 100 nM,-5%
same,inhibition at 1 µM,[2]; 1000 nM,-5%
same,inhibition at 0.01 µM,[3]; 10 nM,-3%
same,inhibition at 0.1 µM,[3]; 100 nM,-3%
same,inhibition at 1 µM,[3]; 1000 nM,-7%
same,inhibition at 0.01 µM,[4]; 10 nM,0%
same,inhibition at 0.1 µM,[4]; 100 nM,4%
same,inhibition at 1 µM,[4]; 1000 nM,11%
same,inhibition at 0.01 µM,[5]; 10 nM,-2%
same,inhibition at 0.1 µM,[5]; 100 nM,6%
same,inhibition at 1 µM,[5]; 1000 nM,32%
same,inhibition at 0.01 µM,[6]; 10 nM,0%
same,inhibition at 0.1 µM,[6]; 100 nM,1%
same,inhibition at 1 µM,[6]; 1000 nM,-6%
same,inhibition at 0.01 µM,[7]; 10 nM,13%
same,inhibition at 0.1 µM,[7]; 100 nM,14%
same,inhibition at 1 µM,[7]; 1000 nM,5%
same,inhibition at 0.01 µM,[8]; 10 nM,-9%
same,inhibition at 0.1 µM,[8]; 100 nM,0%
same,inhibition at 1 µM,[8]; 1000 nM,0%
same,inhibition at 0.01 µM,[9]; 10 nM,19%
same,inhibition at 0.1 µM,[9]; 100 nM,17%
same,inhibition at 1 µM,[9]; 1000 nM,12%
same,inhibition at 0.01 µM,[10]; 10 nM,-4%
same,inhibition at 0.1 µM,[10]; 100 nM,-3%
same,inhibition at 1 µM,[10]; 1000 nM,2%
same,inhibition at 0.01 µM,[11]; 10 nM,5%
same,inhibition at 0.1 µM,[11]; 100 nM,-8%
same,inhibition at 1 µM,[11]; 1000 nM,5%
same,inhibition at 0.01 µM,[12]; 10 nM,-4%
same,inhibition at 0.1 µM,[12]; 100 nM,-13%
same,inhibition at 1 µM,[12]; 1000 nM,-7%
same,inhibition at 0.01 µM,[13]; 10 nM,-18%
same,inhibition at 0.1 µM,[13]; 100 nM,-11%
same,inhibition at 1 µM,[13]; 1000 nM,3%
same,inhibition at 0.01 µM,[14]; 10 nM,-9%
same,inhibition at 0.1 µM,[14]; 100 nM,-8%
same,inhibition at 1 µM,[14]; 1000 nM,-7%
same,inhibition at 0.01 µM,[15]; 10 nM,-13%
same,inhibition at 0.1 µM,[15]; 100 nM,-15%
same,inhibition at 1 µM,[15]; 1000 nM,20%
